# Experiments:
# [1] = CLint in human liver microsomes (reaction phenotyping, no inhibitor); format: in vitro ADME; settings: HLMs
# Protocol: Reaction phenotyping using cDNA expressed recombinant human CYP isoforms, CYP1A2, CYP2B6, CYP2C8, CYP2C9, CYP2C19, CYP2D6, and CYP3A4, was conducted. Each recombinant enzyme (100 pmol/ml) in potassium phosphate buffer (pH 7.4; 100 mmol/L for CYP3A4, 50 mmol/L for the others) was preincubated with [^3H]THY1773 (10 μmol/L) at 37°C for 5 min. The reactions were initiated by the addition of NADPH‐generating system (1 mmol/L NADP^+, 5 mmol/L G‐6‐P, 1 unit/ml G‐6‐PDH, and 5 mmol/L MgCl2) and incubated for 0 or 60 min. The reactions were terminated by the addition of an equal volume of acetonitrile/methanol (9:1, vol/vol), followed by centrifugation at 1650 × g for 10 min at 4°C. An aliquot of the supernatant was subjected to an Agilent 1200 HPLC system (Agilent Technologies, Inc.) equipped with a radiochemical flow detector (Radiomatic 625TR; Perkin Elmer, Inc.), and formation of metabolites was evaluated. […] The CLint was calculated by the method as described previously under metabolic stability in animal liver microsomes, and the fraction metabolized (fm) was calculated by Equation (1): (1) fm=1−(CLint, with inh/CLint) where CLint is intrinsic clearance without specific inhibitor and CLint,with inh is intrinsic clearance in the presence of specific inhibitor.
# [2] = Distribution into brain and pituitary gland in rats; format: in vivo, rat; settings: 1 h after oral 1 mg/kg
# Protocol: The PK and urinary excretion of THY1773 in rats (1 mg/kg) and dogs (0.5 mg/kg) under fasted conditions were evaluated following intravenous or oral administration of THY1773. THY1773 was dissolved in 10% (vol/vol) hydroxypropyl‐β‐cyclodextrin at pH 4 for intravenous administration, or suspended in 0.5% (wt/vol) methyl cellulose 400 for oral administration. After a single intravenous or oral administration of THY1773, blood samples were collected into tubes containing EDTA‐2K as an anticoagulant. The scheduled time points were predose (dog only), 5 (intravenous only), 15, 30 min, 1, 2, 4, 8, 12, and 24 h postdose. Plasma was separated by centrifugation. Urine samples were collected into bottles set on ice for 24 h after intravenous administration of THY1773. Plasma and urine samples were treated with 4 volumes of acetonitrile/methanol (9:1, vol/vol) containing the IS. After centrifugation (3639 × g, 4°C, 10 min) to remove precipitated proteins, the supernatant was subjected to LC‐MS/MS analysis. The distributions of THY1773 into brain and pituitary gland in rats were investigated after a single oral administration of THY1773 (1 mg/kg). Blood was collected from the tail vein into tubes containing EDTA‐2K at 1 h after a single oral administration of THY1773, and the plasma was separated by centrifugation (12000 × g, 4°C, 3 min). […]
# [3] = Metabolic stability in dog liver microsomes; format: in vitro ADME; settings: 1 μmol/L
# Protocol: The oxidative metabolism of THY1773 was evaluated in rat and dog liver microsomes. THY1773 (1 μmol/L) was incubated with pooled liver microsomes (0.25 mg protein/ml) in sodium–potassium phosphate buffer (pH 7.4) consisting of 100 mmol/L sodium phosphate, 100 mmol/L potassium chloride, 2.5 mmol/L magnesium chloride (MgCl2), 1.5 mmol/L glucose‐6‐phosphate (G‐6‐P), and 0.18 units/ml G‐6‐P dehydrogenase (G‐6‐PDH). The reactions were initiated by the addition of β‐nicotinamide–adenine dinucleotide phosphate, oxidized form (NADP^+, 0.16 mmol/L), and incubated for 10, 20, 30, 40, 50, and 60 min. […] The intrinsic clearance (CLint) was calculated by the substrate depletion method described by Naritomi et al. (2001).
# Since the CLliver was underestimated in rats and dogs from CLint in liver microsomes, the ratio of observed in vivo CLint and predicted CLint was calculated as the empirical scaling factor (ESF) for the extrapolation of CLliver from in vitro data. […] The total plasma clearance (CLtotal) was calculated by Equation (4): (4) CLtotal=QH×fu×(CLint/fu,mic)/QH+(fu/Rb)×(CLint/fu,mic)+CLrenal where QH is hepatic blood flow, fu is the free fraction in plasma, fu,mic is the fraction unbound in HLMs, Rb is blood‐to‐plasma ratio, and CLrenal is renal clearance. The fu,mic value was calculated using the Simcyp population based simulator (Version 16 R1; Simcyp Ltd.). […]
smiles,measurement,setting,value
CC(C)NC(=O)Cn1c(-c2cccc(Cl)c2)nn(-c2ccc(CCN3CCOCC3)cc2)c1=O [THY1773],CLint,"[1]; 500 nmol/L, no inhibitor",11.2 ± 0.898 µL/min/mg
same,"CLint (PBPK input, Model 1)",[1]; experimental data,11.2 (Model 1) μl/min/mg protein
same,Concentration ratio of brain to plasma,[2],0.2
same,Concentration ratio of pituitary gland to plasma,[2],4.7
same,CLint in liver microsomes,[3],32.2 μL/min/mg protein

# From PMC8252455, “Prediction of a clinically effective dose of THY1773, a novel V 1B receptor antagonist, based on preclinical data” (Biopharmaceutics & Drug Disposition, 2021)
